The values that follow come from PMC9515468, “Tetracycline-grafted mPEG-PLGA micelles for bone-targeting and osteoporotic improvement” (Frontiers in Pharmacology, 2022).

A short description of data set [1]: AS release in vitro, dialysis bag method. The data set is classed as physicochemical. The conditions noted are these: in 48 h, PBS pH 7.4 with 0.5% Tween 80, 37 °C. As to the method:
The experiment was conducted with an oscillating machine (ZRS-8G model, Tianjin Univ. Radio Factory, China) at a speed of 100 rpm and 37 °C. Withdrawal of dissolution medium for analysis was accordingly performed, while the same volume of fresh medium was added at preset time periods. Measurement of AS concentration for the calculation of the cumulative release ratio with HPLC was carried out. The release curve was drawn with the abscissa as time and the cumulative release ratio as the ordinate ([Weng et al., 2019]).

The nature of data set [2]: Hydroxyapatite-targeting ability (binding to bone mineral). The conditions noted are these: 80 mg hydroxyapatite, 37°C, within 4 h. As to the method:
The precipitates were dissolved with 10 ml of methanol prior to 5 min of sonication and 10 min of centrifugation at 12,000 rpm. Filtration of the supernatant was accomplished with a filtering membrane (0.22 μm). The concentration of AS in the supernatant was detected by HPLC. The adsorption ability of bone targets was calculated by the following equation ([Yuan et al., 2020]): A%=Ia/I0×100% (5) where A% represents the adsorption ability of bone targets. The Ia denotes the amount of AS absorbed by hydroxyapatite. The I0 denotes the weight of AS in initial bone targets.

Data set [3] in a line: Pharmacokinetic parameters in the plasma. Conditions: SD rats, 10 mg/kg, tail vein, n = 6. The data set is classed as in vivo. As to the method:
In-house in vitro analysis of AS was performed with a Shimadzu high performance liquid chromatography (HPLC) machine ([…], Shimadzu-Japan) equipped with an ultraviolet detector and a Purospher® RP18 column (5 μm, 4.6 × 250 mm, Merck KGaA-Germany). […] For in vivo detection, the internal standard (IS) was a baicalein (20 μg/ml) solution, wherein ethyl acetate was employed to extract AS and IS from plasma ([Zhen et al., 2020]). […] Sampling of blood from the retro-orbital veins of rats at preset time intervals was performed after they had received the aforementioned dosage forms. To obtain serum, we stored the sampled blood for 30 min at 37°C prior to centrifugation at 3,700 rpm for 10 min. The following procedure has been depicted in Section 2.7. Based on observed values, we computed Cmax as the maximum AS concentration in plasma and Tmax as the time to attain Cmax. […] Estimation of oral relative biological availability (RBA) was carried out as follows ([Zhu et al., 2021]): […]

The test system of a further data set is ovariectomized rats. Nature of the data set: Osteoporotic study in ovariectomized rats (femur micro-CT, BMD). It counts as in vivo, SD rats. Conditions: 0.5 mg/kg/2 days intravenous; for BMD (bone mineral density) / BV/TV / SMI (structure model index) / Tb.N / Tb.Sp / Tb.Th: femur of ovariectomized rats, n = 3; for increase of femur BMD compared to the OVX group: ovariectomized rats, treatment for 8 weeks. As for the experimental part: Female SD rats were adopted for the osteoporotic study. […] All SD rats were anesthetized and bilaterally ovariectomized except those in the SHAM group, which underwent a sham operation. […] All SD rats were sacrificed, and their left femurs were collected. Detection of BMD was performed with a dual energy X-ray absorptiometric machine ([…] Microtomograph, Bruker, Belgium) ([Zhang et al., 2020]).

Structures are written as SMILES.

`CC(C)(O)[C@@H]1CC[C@](C)([C@H]2[C@@H](O)C[C@@]3(C)[C@@H]4C[C@H](O[C@@H]5O[C@H](CO)[C@@H](O)[C@H](O)[C@H]5O)[C@H]5C(C)(C)[C@@H](O[C@@H]6OC[C@@H](O)[C@H](O)[C@H]6O)CC[C@@]56C[C@@]46CC[C@]23C)O1` [AS, Astragaloside IV] gave a cumulative release rate in data set [1] of 79.05%. The “adsorption ability to hydroxyapatite (A%)” value in data set [2] (containing 1 mg AS) is on record as 26.98%. The “adsorption ability to hydroxyapatite (A%)” value in data set [2] (containing 5 mg AS) came out at 28.83%. Besides, in data set [3], the AUCt is 12912 ng·h/mL; the Cmax (as a rule, the maximum level reached in the sampled fluid or tissue) worked out at 14320 ng/mL; the MRT (as a rule, a mean duration of stay, worked out from the concentration-time curve) was 82.14 min; the Tmax (usually the time at which the peak concentration occurs) stood at 4.98 min. In data set [3], this compound gave a t1/2 of 33.5 min. The “effect on osteoporosis in ovariectomized rats vs OVX group” value in the data set on ovariectomized rats (p < 0.05) is reported as “certain mitigative effect”. Also, in the data set on ovariectomized rats, the “BMD (bone mineral density)” value was determined as 0.064 ± 0.003, the BV/TV came to 9.951 ± 0.100%, the “SMI (structure model index)” value was determined as 1.847 ± 0.032 and the Tb.N came to 1.441 ± 0.026. For the same compound, in the data set on ovariectomized rats, the Tb.Sp is 0.60 ± 0.018, the Tb.Th turned out to be 0.076 ± 0.002 mm and the “increase of femur BMD compared to the OVX group” value turned out to be 12.9%.
`C[C@]12CC[C@@H]3c4ccc(O)cc4CC[C@H]3[C@@H]1CC[C@@H]2O` [ES, estradiol]: in the data set on ovariectomized rats, the “BMD (bone mineral density)” value is 0.093 ± 0.003, the BV/TV is given as 12.91 ± 0.703%, the “SMI (structure model index)” value is 1.793 ± 0.052 and the Tb.N is 1.943 ± 0.063. Further, in the data set on ovariectomized rats, the Tb.Sp is 0.48 ± 0.016, the Tb.Th is recorded as 0.074 ± 0.002 mm and the “increase of femur BMD compared to the OVX group” value is recorded as 62.5%.
